Laboratory results as given in PubChem BioAssay AID212 (DTP/NCI, 2004).
“And” between values parts separate entries of the source, which are not always exact repeats. Equal entries are not always repeated. Results filed as inconclusive are left out.

System: BDF1 mice, colon carcinoma 38 sc, T/C %
Assay: NCI In Vivo Anticancer Drug Screen. Data for tumor model Colon Carcinoma 38 (subcutaneous) in B6D2F1 (BDF1) mice
Settings: endpoint: median tumor weight (est.), higher = larger tumour
Procedure, shortened: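 Compound antitumor activity was assessed in mice carrying transplantable tumors. Survival or tumor size was recorded, and each value is the treated-group measurement divided by that of the vehicle-treated control group.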

[1] = dose: 25.0 mg/kg/injection, schedule: Q07DX002 (ip), vehicle: saline with Tween-80
[2] = dose: 50.0 mg/kg/injection, schedule: Q07DX002 (ip), vehicle: saline with Tween-80
[3] = dose: 100.0 mg/kg/injection, schedule: Q07DX002 (ip), vehicle: saline with Tween-80
[4] = dose: 400.0 mg/kg/injection, schedule: Q07DX002 (ip), vehicle: saline with Tween-80
[5] = dose: 12.5 mg/kg/injection, schedule: Q07DX002 (ip), vehicle: saline with Tween-80
[6] = dose: 200.0 mg/kg/injection, schedule: Q07DX002 (ip), vehicle: saline with Tween-80

CC(/C=C/c1ccccc1)=Nc1ccccc1
T/C [1]: 40 % of control | T/C [2]: 110 % of control | T/C [3]: 92 % of control | T/C [4]: 185 % of control

COc1cccc2c1C(=O)c1c(O)c3c(c(O)c1C2=O)C[C@@](O)(C(=O)CO)C[C@@H]3OC1CC(OC(C)=O)C(OC(C)=O)C(C)O1 (some centres undefined)
T/C (dose: 3.12 mg/kg/injection, schedule: Q07DX002 (ip), vehicle: distilled water + Tween-80): 89 % of control | T/C (dose: 6.25 mg/kg/injection, schedule: Q07DX002 (ip), vehicle: distilled water + Tween-80): 88 % of control | T/C (dose: 12.5 mg/kg/injection, schedule: Q07DX002 (ip), vehicle: distilled water + Tween-80): 65 % of control | T/C (dose: 25.0 mg/kg/injection, schedule: Q07DX002 (ip), vehicle: distilled water + Tween-80): 90 % of control | T/C (dose: 50.0 mg/kg/injection, schedule: Q07DX002 (ip), vehicle: distilled water + Tween-80): 62 % of control

CCC1=C[C@H]2CN(CCc3c([nH]c4ccccc34)[C@@](C(=O)OC)(c3cc4c(cc3OC)N(C)[C@H]3[C@@](O)(C(=O)NC)[C@H](OC(C)=O)[C@]5(CC)C=CCN6CC[C@]43[C@@H]65)C2)C1
T/C (dose: 0.03 mg/kg/injection, schedule: Q07DX002 (ip), vehicle: saline): 116 % of control | T/C (dose: 0.06 mg/kg/injection, schedule: Q07DX002 (ip), vehicle: saline): 84 % of control | T/C (dose: 0.12 mg/kg/injection, schedule: Q07DX002 (ip), vehicle: saline): 90 % of control | T/C (dose: 0.5 mg/kg/injection, schedule: Q07DX002 (ip), vehicle: saline): 108 % of control | T/C (dose: 1.0 mg/kg/injection, schedule: Q07DX002 (ip), vehicle: saline): 90 % of control

CN(C)CCC(=O)C(=Cc1ccc(O)cc1)C(=O)CCN(C)C
T/C (dose: 25.0 mg/kg/injection, schedule: Q07DX002 (ip), vehicle: saline): 97 % of control | T/C (dose: 50.0 mg/kg/injection, schedule: Q07DX002 (ip), vehicle: saline): 112 % of control | T/C (dose: 100.0 mg/kg/injection, schedule: Q07DX002 (ip), vehicle: saline): 77 % of control

CC(=O)Nc1ccc(S(=O)(=O)CO)cc1
T/C [5]: 116 % of control and 97 % of control | T/C [1]: 84 % of control and 107 % of control | T/C [2]: 89 % of control | T/C [3]: 88 % of control and 91 % of control | T/C [6]: 89 % of control and 97 % of control

S=P(N1CC1)(N1CC1)N1CC1
T/C (dose: 1.5 mg/kg/injection, schedule: Q07DX003 (ip), vehicle: saline): 99 % of control | T/C (dose: 3.0 mg/kg/injection, schedule: Q07DX003 (ip), vehicle: saline): 50 % of control | T/C (dose: 6.0 mg/kg/injection, schedule: Q07DX003 (ip), vehicle: saline): 55 % of control

CCOC(=O)/N=[N+](\[O-])c1ccccc1
T/C (dose: 6.25 mg/kg/injection, schedule: Q07DX002 (ip), vehicle: saline with Tween-80): 49 % of control | T/C [5]: 71 % of control

Nc1c(C(=O)O)[nH]c(=O)[nH]c1=O
T/C [5]: 104 % of control | T/C [1]: 100 % of control | T/C [2]: 80 % of control | T/C [6]: 123 % of control

COc1cc(C2c3cc4c(cc3C(O)C(CO)C2CO)OCO4)cc(OC)c1OC (centres undefined)
T/C [5]: 81 % of control | T/C [1]: 155 % of control | T/C [2]: 180 % of control | T/C [3]: 203 % of control | T/C [6]: 160 % of control | T/C [4]: 174 % of control

O=CCC(O)C(O)C(O)CO (centres undefined)
T/C (dose: 600.0 mg/kg/injection, schedule: Q07DX002 (ip), vehicle: suspension in saline): 108 % of control | T/C (dose: 1800.0 mg/kg/injection, schedule: Q07DX002 (ip), vehicle: suspension in saline): 96 % of control | T/C (dose: 2400.0 mg/kg/injection, schedule: Q07DX002 (ip), vehicle: suspension in saline): 102 % of control | T/C (dose: 3600.0 mg/kg/injection, schedule: Q07DX002 (ip), vehicle: suspension in saline): 74 % of control

CC(=O)OCC12CCC(C)=CC1OC1C(=O)CC2(C)C12CO2 (centres undefined)
T/C (dose: 0.25 mg/kg/injection, schedule: Q07DX002 (ip), vehicle: saline): 111 % of control | T/C (dose: 10.0 mg/kg/injection, schedule: Q07DX002 (ip), vehicle: saline): 155 % of control | T/C (dose: 20.0 mg/kg/injection, schedule: Q07DX002 (ip), vehicle: saline): 119 % of control
